Test results taken from patent US12673032B2, “Exploiting estrogen receptor beta and TP53 interaction as a new therapeutic strategy for cancer” (Health Research, Inc., priority 2018, dated 2026).
Where two headings read alike, the source gives them in different places.

What was measured:
[1] = system: MDA-MB-231 cells expressing mutant p53; assay: Doxorubicin cell-killing IC50 in TNBC cells expressing mutant p53, with or without tamoxifen; format: cell-based; conditions: for IC50: Homo sapiens
[2] = system: TP73 recruitment to the PUMA gene promoter; assay: qChIP for BBC3 (PUMA) promoter occupancy by TP73; format: cell-based; conditions: MDA-MB-231 cells; 5 μM for 24 hours
Protocol: FIGS. 17A-C. […] (A) Cells were treated with 5 μM TAM for 24 hours. After 24 hours, BBC3 promoter occupancy by TP73 was determined using qChIP in MDA-MB-231 cells. (B) SK-BR-3 cells were transfected with si-NS or si-ESR2 #2 for 48 hours and treated with or without 5 μM TAM for 24 hours. After 72 hours, expression of TP53 target genes (CDKN1A and BBC3) was determined using qRT-PCR. (C) SK-BR-3 cells were transfected with si-NS or si-TP73 for 48 hours and treated with or without 5 μM TAM for 24 hours. After 72 hours, expression of TP53 target genes (CDKN1A and BBC3) was determined using qRT-PCR. Error bars are represented as mean SD of three independent experiments. All ‘p’ values were determined by two tailed student t-test. qRT-PCR=Quantitative real time polymerase chain reaction. si-NS=non-specific siRNA; si-ESR2 #2=ESR2 specific siRNA; si-TP73=TP73 specific siRNA; VEH=Vehicle; TAM=4-Hydroxytamoxifen.
Chromatin immunoprecipitation (ChIP) assay. […] Immunoprecipitated chromatin samples were analyzed through real-time q-PCR as stated above. A region downstream of CDKN1A/p21 promoter sequence was used as endogenous control for the relative quantitation of immunoprecipitated chromatin fragments (Details of the primers are provided in Table 1). The promoter occupancy by transcription factor (s) of interest was analyzed as qRT-PCR.

In the case of `COc1cccc2c1C(=O)c1c(O)c3c(c(O)c1C2=O)C[C@@](O)(C(=O)CO)C[C@@H]3O[C@H]1C[C@H](N)[C@H](O)[C@H](C)O1` [doxorubicin], the IC50 ([1]; MDA-MB-231, read-out: IC50 of doxorubicin with addition of tamoxifen) is reported as 150 nM, the IC50 ([1]; read-out: IC50 (drug concentration required to kill 50% cells) of doxorubicin, MDA-MB-231 expressing mutant p53, doxorubicin alone) is reported as 1050 nM and the “Decrease of doxorubicin IC50 on addition of tamoxifen” value ([1]; MDA-MB-231 expressing mutant p53) is reported as “about 7 fold”.
For 4-hydroxy tamoxifen, the “recruitment of TP73 to the PUMA gene promoter (qChIP)” value [2] was “enhanced”.
